Reference: article PMC11882969 (Nature Communications, 2025)
“And” between values parts separate entries of the source, which are not always exact repeats. Identical values can stand only once.

Tests used:
[1] = target: hCB1 (Homo sapiens, UniProt P21554); assay: bioSensAll ebBRET signaling profiling, hCB1; type: cell-based; parameters: host or cells: HEK293SL cells, transient PEI transfection; details: for Gi1 hCB1 response: Gi1 biosensor; for Gi1 hCB1 / GoB hCB1: single replicate values, FigS6a
[2] = target: CB1 (rCB1) (Rattus norvegicus, UniProt P20272); assay: Radioligand competition binding, [3H]-CP-55,940, rat brain membranes
Sequence of CB1 (rCB1) (P20272 whole entry): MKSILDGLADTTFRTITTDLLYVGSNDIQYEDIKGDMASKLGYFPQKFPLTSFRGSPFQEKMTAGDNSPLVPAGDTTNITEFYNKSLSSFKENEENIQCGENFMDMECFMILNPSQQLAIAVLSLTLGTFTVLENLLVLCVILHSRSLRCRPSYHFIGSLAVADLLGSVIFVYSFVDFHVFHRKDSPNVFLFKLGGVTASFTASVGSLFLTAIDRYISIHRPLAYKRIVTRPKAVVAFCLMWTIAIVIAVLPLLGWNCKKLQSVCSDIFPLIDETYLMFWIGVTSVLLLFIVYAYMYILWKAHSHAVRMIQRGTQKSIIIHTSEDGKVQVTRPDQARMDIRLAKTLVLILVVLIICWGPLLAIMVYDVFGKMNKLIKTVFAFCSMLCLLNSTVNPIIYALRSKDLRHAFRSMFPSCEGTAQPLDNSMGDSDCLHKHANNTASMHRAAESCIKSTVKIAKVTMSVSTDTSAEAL

Sequence of hCB1 (P21554 whole entry): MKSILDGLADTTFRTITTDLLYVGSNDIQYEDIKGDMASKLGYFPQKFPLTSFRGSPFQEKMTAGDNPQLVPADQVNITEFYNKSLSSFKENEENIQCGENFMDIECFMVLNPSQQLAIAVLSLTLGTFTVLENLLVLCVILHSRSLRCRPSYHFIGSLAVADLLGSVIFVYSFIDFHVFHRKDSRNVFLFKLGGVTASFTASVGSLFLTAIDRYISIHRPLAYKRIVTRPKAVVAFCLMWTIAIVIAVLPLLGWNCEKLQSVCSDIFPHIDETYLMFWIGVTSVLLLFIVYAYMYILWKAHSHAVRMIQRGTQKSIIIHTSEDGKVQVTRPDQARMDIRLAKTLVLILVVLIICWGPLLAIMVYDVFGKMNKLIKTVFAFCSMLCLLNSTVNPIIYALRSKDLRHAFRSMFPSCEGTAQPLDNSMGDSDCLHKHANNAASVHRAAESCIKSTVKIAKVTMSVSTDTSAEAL

`Cc1cc(C(=O)N(C)C(c2ccccc2)c2ccco2)nn1-c1cccc(C(F)(F)F)c1` (centres unmarked) [‘1082] was tested, and the “Gi1 hCB1 response” value ([1]; Log [Compound] (M) -4.22186) was -35.0608, the “Gi1 hCB1 response” value ([1]; Log [Compound] (M) -4.63927) was -33.606 and the “Gi1 hCB1 response” value ([1]; Log [Compound] (M) -5.05788) was 18.2518. The “Gi1 hCB1 response” value ([1]; Log [Compound] (M) -5.47381) was -3.66, the “Gi1 hCB1 response” value ([1]; Log [Compound] (M) -5.89285) was 5.159 and the “Gi1 hCB1 response” value ([1]; Log [Compound] (M) -6.31878) was -15.9695. For the same compound, the “Gi1 hCB1 response” value ([1]; Log [Compound] (M) -6.72585) was 12.7459, the “Gi1 hCB1 response” value ([1]; Log [Compound] (M) -7.14267) was 12.0521 and the “Gi1 hCB1 response” value ([1]; Log [Compound] (M) -7.55284) was 14.8945. The “Gi1 hCB1 response” value ([1]; Log [Compound] (M) -8) was -25.6382, the “Gi1 hCB1 response” value ([1]; Log [Compound] (M) -8.22186) was 0.1228 and the “Gi1 hCB1 response” value ([1]; Log [Compound] (M) -8.39794) was -3.727. The “Gi1 hCB1 response” value ([1]; Log [Compound] (M) -8.68787) was -1.824, the “Gi1 hCB1 response” value ([1]; Log [Compound] (M) -9.15521) was 3.279 and the “Gi1 hCB1 response” value ([1]; Log [Compound] (M) -9.61989) was -3.167. For the same compound, the “Gi1 hCB1 response” value ([1]; Log [Compound] (M) -10.0969) was -2.16, the “Gi1 hCB1 response” value ([1]; Log [Compound] (M) -10.5529) was 5.92 and the “Gi1 hCB1 response” value ([1]; Log [Compound] (M) -11.0177) was -6.256. The “Gi1 hCB1 response” value ([1]; Log [Compound] (M) -11.4949) was -0.9291, the “Gi1 hCB1 response” value ([1]; Log [Compound] (M) -11.9208) was -13.4627 and the “Gi1 hCB1 response” value ([1]; Log [Compound] (M) -12.3979) was -16.5961. For the same compound, the “Gi1 hCB1 response” value ([1]; Log [Compound] (M) -12.8861) was 7.553, the “Gi1 hCB1 response” value ([1]; Log [Compound] (M) -13, individual replicate values) was -19.5729 and -62.4781 and the “Gi1 hCB1” value ([1]; Log [Compound] (M) -4.22186) was -9.361. For the same compound, the “GoB hCB1” value ([1]; Log [Compound] (M) -4.22186) was -31.4993, the “Gi1 hCB1” value ([1]; Log [Compound] (M) -4.63927) was -10.6872 and the “GoB hCB1” value ([1]; Log [Compound] (M) -4.63927) was -34.2867. For the same compound, the “Gi1 hCB1” value ([1]; Log [Compound] (M) -5.05788) was -11.9051, the “GoB hCB1” value ([1]; Log [Compound] (M) -5.05788) was -28.1184 and the “Gi1 hCB1” value ([1]; Log [Compound] (M) -5.47381) was -11.4426. For the same compound, the “GoB hCB1” value ([1]; Log [Compound] (M) -5.47381) was -23.1191, the “Gi1 hCB1” value ([1]; Log [Compound] (M) -5.89285) was -8.945 and the “GoB hCB1” value ([1]; Log [Compound] (M) -5.89285) was -20.2417. The “Gi1 hCB1” value ([1]; Log [Compound] (M) -6.31878) was -6.247, the “GoB hCB1” value ([1]; Log [Compound] (M) -6.31878) was -13.1203 and the “Gi1 hCB1” value ([1]; Log [Compound] (M) -6.72585) was -1.113. For the same compound, the “GoB hCB1” value ([1]; Log [Compound] (M) -6.72585) was -7.186, the “Gi1 hCB1” value ([1]; Log [Compound] (M) -7.14267) was -0.5276 and the “GoB hCB1” value ([1]; Log [Compound] (M) -7.14267) was -1.323. The “Gi1 hCB1” value ([1]; Log [Compound] (M) -7.55284) was 1.23, the “GoB hCB1” value ([1]; Log [Compound] (M) -7.55284) was 0.2953 and the “Gi1 hCB1” value ([1]; Log [Compound] (M) -8) was 1.677. The “GoB hCB1” value ([1]; Log [Compound] (M) -8) was -4.362, the “Gi1 hCB1” value ([1]; Log [Compound] (M) -8.22186) was 1.6461 and the “GoB hCB1” value ([1]; Log [Compound] (M) -8.22186) was -2.654. For the same compound, the “Gi1 hCB1” value ([1]; Log [Compound] (M) -8.39794) was 0.5515, the “GoB hCB1” value ([1]; Log [Compound] (M) -8.39794) was -2.906 and the “Gi1 hCB1” value ([1]; Log [Compound] (M) -8.68787) was 1.245. The “GoB hCB1” value ([1]; Log [Compound] (M) -8.68787) was -4.668, the “Gi1 hCB1” value ([1]; Log [Compound] (M) -9.15521) was 1.045 and the “GoB hCB1” value ([1]; Log [Compound] (M) -9.15521) was -5.747. The “Gi1 hCB1” value ([1]; Log [Compound] (M) -9.61989) was -0.04972, the “GoB hCB1” value ([1]; Log [Compound] (M) -9.61989) was -2.816 and the “Gi1 hCB1” value ([1]; Log [Compound] (M) -10.0969) was 2.864. For the same compound, the “GoB hCB1” value ([1]; Log [Compound] (M) -10.0969) was -1.485, the “Gi1 hCB1” value ([1]; Log [Compound] (M) -10.5529) was 1.384 and the “GoB hCB1” value ([1]; Log [Compound] (M) -10.5529) was -2.978. The “Gi1 hCB1” value ([1]; Log [Compound] (M) -11.0177) was -0.3581, the “GoB hCB1” value ([1]; Log [Compound] (M) -11.0177) was 1.41 and the “Gi1 hCB1” value ([1]; Log [Compound] (M) -11.4949) was 1.415. The “GoB hCB1” value ([1]; Log [Compound] (M) -11.4949) was -0.7478, the “Gi1 hCB1” value ([1]; Log [Compound] (M) -11.9208) was 2.802 and the “GoB hCB1” value ([1]; Log [Compound] (M) -11.9208) was 0.3312. The “Gi1 hCB1” value ([1]; Log [Compound] (M) -12.3979) was 0.1044, the “GoB hCB1” value ([1]; Log [Compound] (M) -12.3979) was -0.9456 and the “Gi1 hCB1” value ([1]; Log [Compound] (M) -12.8861) was -0.6818. For the same compound, the “GoB hCB1” value ([1]; Log [Compound] (M) -12.8861) was 1.626, the “Gi1 hCB1” value ([1]; Log [Compound] (M) -13) was 2.001 and 0.07361 and the “GoB hCB1” value ([1]; Log [Compound] (M) -13) was 1.176 and -0.1363. For the same compound, the “pKi [95% CI]” value ([2]; rCB1) was 6.1 [5.8 – 6.3] and the Ki ([2]; read-out: Ki [95% CI], rCB1, [3H]-CP-55,940) was 850 nM.
